Source: ChEMBL document CHEMBL2413072, “Synthesis and in vitro anticancer studies of novel C-2 arylidene congeners of lantadenes” (2013)

Assays:
Format in all cases: functional
SNB-19 = assay: Growth inhibition of human SNB19 cells assessed as cell growth at 10^-6 M by sulforhodamine B assay; settings: read-out: Activity
COLO 205 [1] = assay: Growth inhibition of human COLO205 cells assessed as cell growth at 10^-4 M by sulforhodamine B assay; settings: read-out: Activity
A549 = assay: Growth inhibition of human A549/ATCC cells by sulforhodamine B assay
HOP-62 = assay: Growth inhibition of human HOP62 cells assessed as cell growth at 10^-8 M by sulforhodamine B assay; settings: read-out: Activity
HT-29 [2] = assay: Growth inhibition of human HT-29 cells assessed as cell growth at 10^-8 M by sulforhodamine B assay; settings: read-out: Activity
OVCAR-3 = assay: Growth inhibition of human OVCAR3 cells assessed as cell growth at 10^-8 M by sulforhodamine B assay; settings: read-out: Activity
MDA-MB-231 [3] = assay: Growth inhibition of human MDA-MB-231 cells assessed as cell growth at 10^-8 M by sulforhodamine B assay; settings: read-out: Activity
RPMI-8226 = assay: Growth inhibition of human RPMI8226 cells assessed as cell growth at 10^-7 M by sulforhodamine B assay; settings: read-out: Activity
NCI-H322M = assay: Growth inhibition of human NCI-H322M cells assessed as cell growth at 10^-6 M by sulforhodamine B assay; settings: read-out: Activity
786-0 [4] = assay: Growth inhibition of human 786-0 cells assessed as cell growth at 10^-4 M by sulforhodamine B assay; settings: read-out: Activity
U-251 = assay: Growth inhibition of human U251 cells assessed as cell growth at 10^-4 M by sulforhodamine B assay; settings: read-out: Activity
MCF7 = assay: Growth inhibition of human MCF7 cells by sulforhodamine B assay
MOLT-4 = assay: Growth inhibition of human MOLT4 cells assessed as cell growth at 10^-4 M by sulforhodamine B assay; settings: read-out: Activity
T47D [5] = assay: Growth inhibition of human T47D cells by sulforhodamine B assay
BT-549 = assay: Growth inhibition of human BT549 cells assessed as cell growth at 10^-4 M by sulforhodamine B assay; settings: read-out: Activity
SK-MEL-5 = assay: Growth inhibition of human SK-MEL-5 cells assessed as cell growth at 10^-7 M by sulforhodamine B assay; settings: read-out: Activity
[6] = Growth inhibition of human HCC2998 cells assessed as cell growth at 10^-6 M by sulforhodamine B assay; settings: HCC 2998, read-out: Activity
HL-60(TB) [7] = assay: Growth inhibition of human HL-60(TB) cells assessed as cell growth at 10^-4 M by sulforhodamine B assay; settings: read-out: Activity
SW-620 = assay: Growth inhibition of human SW620 cells by sulforhodamine B assay
MDA-MB-468 = assay: Growth inhibition of human MDA-MB-468 cells by sulforhodamine B assay
M14 = assay: Growth inhibition of human M14 cells assessed as cell growth at 10^-7 M by sulforhodamine B assay; settings: read-out: Activity
HL-60(TB) [8] = assay: Growth inhibition of human HL-60(TB) cells by sulforhodamine B assay
MDA-MB-231 [9] = assay: Growth inhibition of human MDA-MB-231 cells assessed as cell growth at 10^-6 M by sulforhodamine B assay; settings: read-out: Activity
T47D [10] = assay: Growth inhibition of human T47D cells assessed as cell growth at 10^-6 M by sulforhodamine B assay; settings: read-out: Activity
HT-29 [11] = assay: Growth inhibition of human HT-29 cells by sulforhodamine B assay
UACC-257 = assay: Growth inhibition of human UACC257 cells assessed as cell growth at 10^-4 M by sulforhodamine B assay; settings: read-out: Activity
OVCAR-4 = assay: Growth inhibition of human OVCAR4 cells assessed as cell growth at 10^-6 M by sulforhodamine B assay; settings: read-out: Activity
CAKI-1 = assay: Growth inhibition of human CAKI-1 cells assessed as cell growth at 10^-6 M by sulforhodamine B assay; settings: read-out: Activity
SF-268 = assay: Growth inhibition of human SF268 cells assessed as cell growth at 10^-8 M by sulforhodamine B assay; settings: read-out: Activity
COLO 205 [12] = assay: Growth inhibition of human COLO205 cells assessed as cell growth at 10^-6 M by sulforhodamine B assay; settings: read-out: Activity
SK-OV-3 = assay: Growth inhibition of human SKOV3 cells by sulforhodamine B assay
HCT-15 = assay: Growth inhibition of human HCT15 cells by sulforhodamine B assay
NCI-H226 = assay: Growth inhibition of human NCI-H226 cells assessed as cell growth at 10^-8 M by sulforhodamine B assay; settings: read-out: Activity
786-0 [13] = assay: Growth inhibition of human 786-0 cells assessed as cell growth at 10^-7 M by sulforhodamine B assay; settings: read-out: Activity
MDA-MB-435 [14] = assay: Growth inhibition of human MDA-MB-435 cells by sulforhodamine B assay
NCI-H522 = assay: Growth inhibition of human NCI-H522 cells assessed as cell growth at 10^-6 M by sulforhodamine B assay; settings: read-out: Activity
MDA-MB-435 [15] = assay: Growth inhibition of human MDA-MB-435 cells assessed as cell growth at 10^-7 M by sulforhodamine B assay; settings: read-out: Activity
PC-3 = assay: Growth inhibition of human PC3 cells assessed as cell growth at 10^-6 M by sulforhodamine B assay; settings: read-out: Activity
[16] = read-out: LC50 (the source's name)
[17] = read-out: pLC50 (the source's name) (converted)

In the case of C/C=C(/C)C(=O)O[C@@H]1CC(C)(C)C[C@H]2C3=CC[C@@H]4[C@@]5(C)CC[C@H](O)C(C)(C)[C@@H]5CC[C@@]4(C)[C@]3(C)CC[C@@]12C(=O)O [Reduced Lantadene A], the growth at 1 µM (SNB-19) is reported as 85%, the growth at 100 µM (COLO 205 [1]) is reported as 3% and the GI50 (A549; read-out: GI50) is reported as 1.19 µM. The CC50 (A549; [16]) was 6.37 µM, the TGI (A549; read-out: TGI) was 2.76 µM and the GI50 (A549; read-out: pGI50 (converted)) was 1.2 µM. It also gave a CC50 (A549; [17]) of 6.31 µM, a TGI (A549; read-out: pTGI (converted)) of 2.75 µM and a growth at 0.01 µM (HOP-62) of 93%. The growth at 0.01 µM (HT-29 [2]) was 104%, the growth at 0.01 µM (OVCAR-3) was 106% and the growth at 0.01 µM (MDA-MB-231 [3]) was 99%. For the same molecule, the growth at 0.1 µM (RPMI-8226) was 92%, the growth at 1 µM (NCI-H322M) was 93% and the growth at 100 µM (786-0 [4]) was -55%. It also gave a growth at 100 µM (U-251) of -52%, a GI50 (MCF7; read-out: GI50) of 3.09 µM and a CC50 (MCF7; [16]) of over 100 µM. For the same molecule, the TGI (MCF7; read-out: TGI) was 16.5 µM, the GI50 (MCF7; read-out: pGI50 (converted)) was 3.09 µM and the CC50 (MCF7; [17]) was over 100 µM. For the same molecule, the TGI (MCF7; read-out: pTGI (converted)) was 16.6 µM, the growth at 100 µM (MOLT-4) was -36% and the GI50 (T47D [5]; read-out: GI50) was 11.8 µM. It also gave a CC50 (T47D [5]; [16]) of over 100 µM, a TGI (T47D [5]; read-out: TGI) of 41.1 µM and a GI50 (T47D [5]; read-out: pGI50 (converted)) of 11.7 µM. For the same molecule, the CC50 (T47D [5]; [17]) was over 100 µM, the TGI (T47D [5]; read-out: pTGI (converted)) was 40.7 µM and the growth at 100 µM (BT-549) was -90%. It also gave a growth at 0.1 µM (SK-MEL-5) of 92%, a growth at 1 µM [6] of 101% and a growth at 100 µM (HL-60(TB) [7]) of -36%. For the same molecule, the GI50 (SW-620; read-out: GI50) was 2.31 µM, the CC50 (SW-620; [16]) was over 100 µM and the TGI (SW-620; read-out: TGI) was 6.62 µM. For the same molecule, the GI50 (SW-620; read-out: pGI50 (converted)) was 2.29 µM, the CC50 (SW-620; [17]) was over 100 µM and the TGI (SW-620; read-out: pTGI (converted)) was 6.61 µM. The GI50 (MDA-MB-468; read-out: GI50) was 1.68 µM, the CC50 (MDA-MB-468; [16]) was 7.86 µM and the TGI (MDA-MB-468; read-out: TGI) was 3.64 µM. For the same molecule, the GI50 (MDA-MB-468; read-out: pGI50 (converted)) was 1.7 µM, the CC50 (MDA-MB-468; [17]) was 7.94 µM and the TGI (MDA-MB-468; read-out: pTGI (converted)) was 3.63 µM. For the same molecule, the growth at 0.1 µM (M14) was 92%, the GI50 (HL-60(TB) [8]; read-out: GI50) was 2.19 µM and the CC50 (HL-60(TB) [8]; [16]) was over 100 µM. For the same molecule, the TGI (HL-60(TB) [8]; read-out: TGI) was 4.9 µM, the GI50 (HL-60(TB) [8]; read-out: pGI50 (converted)) was 2.19 µM and the CC50 (HL-60(TB) [8]; [17]) was over 100 µM. It also gave a TGI (HL-60(TB) [8]; read-out: pTGI (converted)) of 4.9 µM, a growth at 1 µM (MDA-MB-231 [9]) of 89% and a growth at 1 µM (T47D [10]) of 96%. It also gave a GI50 (HT-29 [11]; read-out: GI50) of 2.16 µM, an LC50 (50% cell kill) (HT-29 [11]; read-out: LC50) of 8.77 µM and a TGI (HT-29 [11]; read-out: TGI) of 4.35 µM. It also gave a GI50 (HT-29 [11]; read-out: pGI50 (converted)) of 2.14 µM, an LC50 (50% cell kill) (HT-29 [11]; read-out: pLC50 (converted)) of 8.71 µM and a TGI (HT-29 [11]; read-out: pTGI (converted)) of 4.37 µM. It also gave a growth at 100 µM (UACC-257) of -69%, a growth at 1 µM (OVCAR-4) of 88% and a growth at 1 µM (CAKI-1) of 85%. The growth at 0.01 µM (SF-268) was 101%, the growth at 1 µM (COLO 205 [12]) was 104% and the GI50 (SK-OV-3; read-out: GI50) was 1.87 µM. It also gave a GI50 (SK-OV-3; read-out: pGI50 (converted)) of 1.86 µM, a GI50 (HCT-15; read-out: GI50) of 2.58 µM and an LC50 (50% lethal concentration) (HCT-15; read-out: LC50) of 62.6 µM. The TGI (HCT-15; read-out: TGI) was 11.5 µM, the GI50 (HCT-15; read-out: pGI50 (converted)) was 2.57 µM and the LC50 (50% lethal concentration) (HCT-15; read-out: pLC50 (converted)) was 63.1 µM. For the same molecule, the TGI (HCT-15; read-out: pTGI (converted)) was 11.5 µM, the growth at 0.01 µM (NCI-H226) was 91% and the growth at 0.1 µM (786-0 [13]) was 97%. The GI50 (MDA-MB-435 [14]; read-out: GI50) was 2.21 µM, the CC50 (MDA-MB-435 [14]; [16]) was over 100 µM and the TGI (MDA-MB-435 [14]; read-out: TGI) was 5.9 µM. The GI50 (MDA-MB-435 [14]; read-out: pGI50 (converted)) was 2.19 µM, the CC50 (MDA-MB-435 [14]; [17]) was over 100 µM and the TGI (MDA-MB-435 [14]; read-out: pTGI (converted)) was 5.89 µM. It also gave a growth at 1 µM (NCI-H522) of 93%, a growth at 0.1 µM (MDA-MB-435 [15]) of 94% and a growth at 1 µM (PC-3) of 70%.
